{
  "source": "patent US20140031278A1",
  "about": "“Novel Glucagon Analogues” (NOVO NORDISK A/S, priority 2011, published 2014)",
  "note": "*1 amine or outer side, *2 acyl side, *3 side chain or, on linkers, in order; H or OH if unused. Where a SMILES comes first, the peptide text is derived from it. Side-chain parts run from the residue outwards. γGlu = O=C(O)[C@H](CCC(=O)[*:2])N[*:1]",
  "data": [
    {"biological_target": "T1, glucagon receptor (Homo sapiens, UniProt P47871)", "T1 construct": "expressed in transfected cells", "T1 sequence (P47871 26-477)": "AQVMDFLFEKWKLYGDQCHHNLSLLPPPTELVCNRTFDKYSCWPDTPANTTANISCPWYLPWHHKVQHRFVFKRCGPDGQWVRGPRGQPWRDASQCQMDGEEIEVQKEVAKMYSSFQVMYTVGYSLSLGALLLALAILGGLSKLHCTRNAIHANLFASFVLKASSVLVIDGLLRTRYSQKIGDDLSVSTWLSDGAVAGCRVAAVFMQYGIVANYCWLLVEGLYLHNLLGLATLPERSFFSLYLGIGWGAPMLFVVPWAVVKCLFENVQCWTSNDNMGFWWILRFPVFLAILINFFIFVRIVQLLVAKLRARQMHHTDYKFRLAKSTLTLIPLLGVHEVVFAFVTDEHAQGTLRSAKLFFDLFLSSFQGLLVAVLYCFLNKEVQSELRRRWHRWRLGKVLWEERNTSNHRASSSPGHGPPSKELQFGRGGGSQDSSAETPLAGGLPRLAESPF", "experiment": "Assay (I) Glucagon activity (cAMP biosensor, FLIPR)", "format": "cell-based", "details": "HEK-293 cells with cloned glucagon receptor and cAMP biosensor; end point after 6 minutes", "protocol": "The glucagon receptor was cloned into HEK-293 cells having a membrane bound cAMP biosensor (ACTOne™). The cells (14000 per well) were incubated (37° C., 5% CO2) overnight in 384-well plates. Next day the cells were loaded with a calcium responsive dye that only distributed into the cytoplasm. Probenecid, an inhibitor of the organic anion transporter, was added to prevent the dye from leaving the cell. A PDE inhibitor was added to prevent formatted cAMP from being degraded, The plates were placed into a […] and the glucagon analogues were added. End point data were collected after 6 minutes. An increase in intracellular cAMP was proportional to an increased in calcium concentrations in the cytoplasm. When calcium was bound the dry a fluorescence signal was generated. EC50-values were calculated in Prism5.", "units": {"EC50": "nM"}, "values": [
      {"smiles": "CC(=O)N[C@@H](CCC(=O)N[C@@H](CCC(=O)N[C@@H](CCC(=O)N[C@@H](CCC(=O)NCCCC[C@H](NC(=O)[C@@H](NC(=O)[C@H](Cc1ccccc1)NC(=O)[C@H](CC(=O)O)NC(=O)[C@H](CCC(N)=O)NC(=O)[C@H](C)NC(=O)[C@H](CCCNC(=N)N)NC(=O)[C@H](CCCNC(=N)N)NC(=O)[C@H](CO)NC(=O)[C@H](CCC(=O)O)NC(=O)[C@H](CC(C)C)NC(=O)[C@H](Cc1ccc(O)cc1)NC(=O)[C@H](CCCCN)NC(=O)[C@H](CO)NC(=O)[C@H](Cc1ccc(O)cc1)NC(=O)[C@H](CC(=O)O)NC(=O)[C@H](CO)NC(=O)[C@@H](NC(=O)[C@H](Cc1ccccc1)NC(=O)[C@@H](NC(=O)CNC(=O)[C@H](CCC(N)=O)NC(=O)[C@H](CO)NC(=O)[C@@H](N)Cc1c[nH]cn1)[C@@H](C)O)[C@@H](C)O)C(C)C)C(=O)N[C@@H](Cc1c[nH]c2ccccc12)C(=O)N[C@@H](CC(C)C)C(=O)N[C@@H](CC(C)C)C(=O)N[C@@H](CO)C(=O)N[C@H](C(=O)O)[C@@H](C)O)C(=O)O)C(=O)O)C(=O)O)C(=O)O", "note": "[Example 23, N^ε24-[(4S)-4-[[(4S)-4-[[(4S)-4-[[(4S)-4-acetamido-4-carboxybutanoyl]amino]-4-carboxybutanoyl]amino]-4-carboxybutanoyl]amino]-4-carboxybutanoyl]-[Glu15,Lys24,Leu27,Ser28]-Glucagon]", "EC50": 0.0105},
      {"smiles": "CC(=O)N[C@@H](CCC(=O)N[C@@H](CCC(=O)N[C@@H](CCC(=O)N[C@@H](CCC(=O)NCCCC[C@H](NC(=O)[C@@H](NC(=O)[C@H](Cc1ccccc1)NC(=O)[C@H](CC(=O)O)NC(=O)[C@H](CCC(N)=O)NC(=O)[C@H](C)NC(=O)[C@H](CCCNC(=N)N)NC(=O)[C@H](CCCNC(=N)N)NC(=O)[C@@H](NC(=O)[C@H](CC(=O)O)NC(=O)[C@H](CC(C)C)NC(=O)[C@H](Cc1ccc(O)cc1)NC(=O)[C@H](CCCNC(=N)N)NC(=O)[C@H](CO)NC(=O)[C@H](Cc1ccc(O)cc1)NC(=O)[C@H](CC(=O)O)NC(=O)[C@H](CO)NC(=O)[C@@H](NC(=O)[C@H](Cc1ccccc1)NC(=O)[C@@H](NC(=O)CNC(=O)[C@H](CCC(N)=O)NC(=O)[C@H](CO)NC(=O)[C@@H](N)Cc1c[nH]cn1)[C@@H](C)O)[C@@H](C)O)[C@@H](C)O)C(C)C)C(=O)N[C@@H](Cc1c[nH]c2ccccc12)C(=O)N[C@@H](CC(C)C)C(=O)N[C@@H](CC(C)C)C(=O)N[C@@H](CO)C(=O)N[C@H](C(=O)N1CCC[C@H]1C(=O)O)[C@@H](C)O)C(=O)O)C(=O)O)C(=O)O)C(=O)O", "note": "[Example 26] (H-HSQGTFTSDYSRYLDTRRAQDFVK([γGlu-γGlu-γGlu-γGlu-Ac])WLLSTP-OH)", "EC50": 0.012},
      {"smiles": "CC(=O)N[C@@H](CCC(=O)N[C@@H](CCC(=O)N[C@@H](CCC(=O)N[C@@H](CCC(=O)NCCCC[C@H](NC(=O)[C@@H](NC(=O)[C@H](Cc1ccccc1)NC(=O)[C@H](CC(=O)O)NC(=O)[C@H](CCC(N)=O)NC(=O)[C@H](C)NC(=O)[C@H](CCCNC(=N)N)NC(=O)[C@H](CCCNC(=N)N)NC(=O)[C@@H](NC(=O)[C@H](CC(=O)O)NC(=O)[C@H](CC(C)C)NC(=O)[C@H](Cc1ccc(O)cc1)NC(=O)[C@H](CCCCN)NC(=O)[C@H](CO)NC(=O)[C@H](Cc1ccc(O)cc1)NC(=O)[C@H](CC(=O)O)NC(=O)[C@H](CO)NC(=O)[C@@H](NC(=O)[C@H](Cc1ccccc1)NC(=O)[C@@H](NC(=O)CNC(=O)[C@H](CCC(N)=O)NC(=O)[C@H](CO)NC(=O)[C@@H](N)Cc1c[nH]cn1)[C@@H](C)O)[C@@H](C)O)[C@@H](C)O)C(C)C)C(=O)N[C@@H](Cc1c[nH]c2ccccc12)C(=O)N[C@@H](CC(C)C)C(=O)N[C@@H](CC(C)C)C(=O)N[C@@H](CO)C(=O)N[C@H](C(=O)O)[C@@H](C)O)C(=O)O)C(=O)O)C(=O)O)C(=O)O", "note": "[Example 30]", "EC50": 0.0065}
    ]}
  ]
}
